Assays:
SW620 cells [1] = test: Cell proliferation of SW620 cells with free ligand in the medium (cell counting); assay type: cell-based, human
Experimental: FIG. 8. RT-PCR of the receptor when the cells are kept in contact with lactisole for 9 days, comparing it with the controls (SW620 cultured in medium with low glucose concentration) (A). Cell proliferation of SW620 cells cultured in medium with low glucose concentration, and increasing concentrations of lactisole (from 0.44 mg/mL to 7 mg/mL) for 72 h (B). Colony formation of control SW620 cells or in contact with the lactisole ligand, at a concentration of 3.5 mg/mL, after 15 days of culture (C). Beta-galactosidase staining, indicative of cellular senescence, in SW620 cells treated with lactisole (3.5 mg/mL for 72 hours, arrows show cells where staining can be seen) (D). Western blot showing the expression of different proteins involved in tumor progression in SW620 cells when they are exposed to different glucose concentrations (high and low) and lactisole (3.5 mg/ml) for 9 days (E). […] Cell proliferation studies were carried out in SW620 cells, FIG. 7A, cultured in medium with high and low glucose concentration. […] Photos were taken using the microscope (Leica DMIL® microscope) and subsequently they were trypsinized, and the number of cells was counted to make the comparison between these and the starting ones in order to observe the effect of the ligand on the cells. […]

[2] = Immunization of mice with TAS1R3 peptide, titration of bleeds; assay type: in vivo; details: 4 plus 2 doses of 50 μg of peptide
Experimental: The resulting protein was purified to homogeneity with a final purity of 90-95%, 2 mg conjugated to KLH, 3 mg conjugated to BSA. The design of the genomic construct was carried out based on the literature (Maitrepierre et al., 2012). Likewise, a study of storage buffer formulation was carried out to preserve the integrity of the protein (restricting the use of detergents and polysaccharides in the final formula). The batch obtained was aliquoted in labeled sterile vials and stored at −80° C. until use. After several immunizations of the mice with 4 plus 2 doses of 50 μg of peptide, the bleeds were titrated in order to evaluate the increase of the response against the peptide.

SW620 cells [3] = test: Colony formation of SW620 cells with free ligand; assay type: cell-based, human; details: SW620, low glucose medium, 3.5 mg/mL ligand, 15 days, versus control SW620 (FIG. 8C)
Experimental: Cell proliferation studies were carried out in SW620 cells, FIG. 7A, cultured in medium with high and low glucose concentration. The cells were trypsinized and plated the same number of cells in order to count them at times 0, 24, 72, 96 and 168 hours, using for this the Neubauer chamber, after trypsinization thereof. In an analogous manner, cell proliferation studies were carried out in medium with the presence of free ligand, FIG. 8, which was added to the culture medium at different concentrations. Photos were taken using the microscope (Leica DMIL® microscope) and subsequently they were trypsinized, and the number of cells was counted to make the comparison between these and the starting ones in order to observe the effect of the ligand on the cells. […] However, when studies of colony formation were carried out, starting from an amount of 200 cells per well and waiting for 15 days, it was observed that cells cultured in medium with low concentration of glucose, and that express higher levels of receptor, formed more colonies than those grown in high glucose medium (FIG. 7B). For colony formation studies, 12 well plates were used, plating in different amounts of cells (200, 400,600 and 800 cells per well), in medium with high (4500 mg/L) and low (1000 mg/L) content of glucose. […]

TAS1R3 receptor = test: RT-PCR of TAS1R3 receptor in SW620 cells kept in contact with lactisole; assay type: cell-based, human; details: SW620, low glucose medium, lactisole for 9 days, versus controls (FIG. 8A)
Experimental: Metastatic colon cells from the lymph node (SW620, CCL-227), colorectal adenocarcinoma epithelial cells (SW480, CCL-228), lung carcinoma epithelial cells (A549, CCL-185), and metastatic lung cells from the liver (H1755, CRL-5892), pancreatic carcinoma cells (MIA PaCa-2, CRL-1420), and glioblastoma cells (U118, HTB-15 and U87MG, HTB-14) were used. The SW620, SW480, A549, U118 and U87MG lines were maintained in DMEM HG medium (Dulbecco's Modified Eagle's Medium—High glucose, Sigma-Aldrich), and the H1755 line in RPMI 1640 medium (Gibco®, LifeTecnologies), both supplemented to the 10% with fetal bovine serum (Gibco®, LifeTecnologies) and 1% with antibiotic (penicillin and streptomycin, Sigma-Aldrich). For the quantitative analysis of the expression of TAS1R3, a polymerase chain reaction was carried out with reverse transcriptase (RT-PCR), starting from RNA extracted from all cell lines in culture. […] RNA extraction was carried out using the extraction kit (GeneJET RNA Purification Kit, ThermoScientic), and the analysis was carried out in a manner similar to that described in a previous paragraph. Once the procedure was finished, the data were analyzed.

p-ERK, p-AKT, IGF-IR = test: Western blot of proteins involved in tumor progression in SW620 cells; assay type: cell-based, human; details: SW620, lactisole 3.5 mg/ml or high glucose (HG), 9 days (FIG. 8E)
Experimental: FIG. 8. RT-PCR of the receptor when the cells are kept in contact with lactisole for 9 days, comparing it with the controls (SW620 cultured in medium with low glucose concentration) (A). Cell proliferation of SW620 cells cultured in medium with low glucose concentration, and increasing concentrations of lactisole (from 0.44 mg/mL to 7 mg/mL) for 72 h (B). Colony formation of control SW620 cells or in contact with the lactisole ligand, at a concentration of 3.5 mg/mL, after 15 days of culture (C). Beta-galactosidase staining, indicative of cellular senescence, in SW620 cells treated with lactisole (3.5 mg/mL for 72 hours, arrows show cells where staining can be seen) (D). […]
For the qualitative study of proteins, Western Blot was performed from proteins isolated from the SW620 cell line, and the results are shown in FIG. 6 (B). […] The total protein of each sample was quantified by the […] (conversion method of bicathionic to monocationic copper in alkaline conditions influenced by specific amino acids such as cysteine, cystine, tryptophan, tyrosine and also by the peptide chain; the amount of bicathionic copper will depend of the amount of these components and will be determined spectrophotopically) using the commercial kit DC-Assay (BIO-RAD®) and establishing a calibration line with bovine serum albumin (BSA, Sigma-Aldrich). […]

SW620 cells [4] = test: Beta-galactosidase staining for cellular senescence; assay type: cell-based, human; details: SW620, low glucose medium, 3.5 mg/mL, 72 hours (FIG. 8D)
Experimental: To determine whether after cell incubation with the ligand cell senescence is induced, 500,000 cells of the SW620 line were cultured in 6-well plates and medium with low glucose concentration. In several wells, ligand (3.5 mg/mL) was added. After 72 hours, the wells were washed and fixed (2% formaldehyde, 0.2% glutaraldehyde in PBS) for 15 minutes at room temperature. The solution was eliminated giving three washes with 1×PBS, and then the staining solution was applied, calculated for one milliliter of solution: 200 μL citric acid/phosphate buffer, pH 6.0 (dibasic sodium phosphate (Na2HPO4) 0.2 M+0.1 M citric acid), 30 μL 5 M NaCl, 50 μL potassium ferricyanide (K3[Fe(CN)6]) 100 mM, 50 μL potassium ferrocyanide (K4[Fe(CN)6]) 100 mM, 2 μL magnesium chloride (MgCl2) 1 M, 50 μL solution X-gal (20 mg/mL of 5-bromo-4-chloro-3-indolyl β D-galactopyranoside in […]) and 618 μL distilled water. It was incubated in the oven at 37° C. overnight, the wells were washed with distilled water in motion twice, to then apply PBS 1× and observe the possible senescent cells under the Vert microscope. Al, Zeiss®. Blue staining is observed, corresponding to cells in senescence.

## CFYDEKR [peptide derived from brazzein, brazzein peptide, ligand for TAS1R3]
SW620 cells [1]; SW620, DMEM supplemented with different receptor ligands, extent depends on concentration and molecule (FIG. 8F)
  Cell proliferation: interfere with proliferation

## Acetyl-LSQQLRMKGDYVLGGC-amide (Ac-LSQQLRMKGDYVLGGC-NH2) [TAS1R3 N-terminal extracellular peptide immunogen, conjugated to KLH / BSA]
[2]
  Response against the peptide (titration of bleeds): some response against the peptide, although with very low values

## COc1ccc(OC(C)C(=O)O)cc1 (stereo not shown) [lactisole, Lactisole]
SW620 cells [3]
  Colony formation: no representative colony formed on the plate was observed
TAS1R3 receptor
  Expression of the TAS1R3 receptor (RT-PCR): increase in the expression of the receptor
p-ERK, p-AKT, IGF-IR
  Activation of pathways related to tumor progression (western blot): activates pathways related to tumor progression, such as p-ERK, p-AKT or IGF-IR
SW620 cells [4]
  Cellular senescence (beta-galactosidase staining): induction of cellular senescence
SW620 cells [1]; SW620, low glucose medium, lactisole 0.44 to 7 mg/mL, 72 h, effect at higher concentrations (FIG. 8B)
  Cell proliferation: interferes with cell proliferation
